Solubility data for one compound are collected here from patent publication US8471041B2 (priority 2010, dated 2013).

The nature of series [1]: physchem. The settings on record: water.
A short description of series [2]: physchem. The following applies: organic solvent or mixture.

Each structure is given as a SMILES string. Values after ≈ are worked out from the molar mass of the structure shown.

Broadly, the solubility is how much of the substance goes into solution per volume. As to `O=C(CBr)N1CC([N+](=O)[O-])([N+](=O)[O-])C1` [ABDNAZ, N-(bromoacetyl)-3,3-dinitroazetidine], the solubility is 0.3 to 1.3 mg/mL (≈ 1.12 to 4.85 mM) in series [1] and around 30 mg/mL (≈ 112 mM) in series [2].
